Assay results: ChEMBL document CHEMBL5625280, “Discovery of novel nucleoside derivatives as selective lysine acetyltransferase p300 inhibitors for cancer therapy” (Bioorg Med Chem Lett, 2024)

The molecules below were run on MDA-MB-231 (assay: Antiproliferative activity against human MDA-MB-231 cells assessed as inhibition of cell proliferation at 10 uM incubated for 72 hrs by MTT assay relative to control). Details: not given.
Type: functional

| Structure (SMILES) | inhibition at 10 µM |
| --- | --- |
| COC(=O)c1ccc(CCCCn2cc(-c3ccc(Cn4cc(C)c(N)nc4=O)cc3)nn2)cc1 | > 50% |

Each molecule was assayed against Histone acetyltransferase p300 (Homo sapiens, UniProt Q09472). Details: not given.
Histone acetyltransferase p300, sequence (Q09472 whole entry): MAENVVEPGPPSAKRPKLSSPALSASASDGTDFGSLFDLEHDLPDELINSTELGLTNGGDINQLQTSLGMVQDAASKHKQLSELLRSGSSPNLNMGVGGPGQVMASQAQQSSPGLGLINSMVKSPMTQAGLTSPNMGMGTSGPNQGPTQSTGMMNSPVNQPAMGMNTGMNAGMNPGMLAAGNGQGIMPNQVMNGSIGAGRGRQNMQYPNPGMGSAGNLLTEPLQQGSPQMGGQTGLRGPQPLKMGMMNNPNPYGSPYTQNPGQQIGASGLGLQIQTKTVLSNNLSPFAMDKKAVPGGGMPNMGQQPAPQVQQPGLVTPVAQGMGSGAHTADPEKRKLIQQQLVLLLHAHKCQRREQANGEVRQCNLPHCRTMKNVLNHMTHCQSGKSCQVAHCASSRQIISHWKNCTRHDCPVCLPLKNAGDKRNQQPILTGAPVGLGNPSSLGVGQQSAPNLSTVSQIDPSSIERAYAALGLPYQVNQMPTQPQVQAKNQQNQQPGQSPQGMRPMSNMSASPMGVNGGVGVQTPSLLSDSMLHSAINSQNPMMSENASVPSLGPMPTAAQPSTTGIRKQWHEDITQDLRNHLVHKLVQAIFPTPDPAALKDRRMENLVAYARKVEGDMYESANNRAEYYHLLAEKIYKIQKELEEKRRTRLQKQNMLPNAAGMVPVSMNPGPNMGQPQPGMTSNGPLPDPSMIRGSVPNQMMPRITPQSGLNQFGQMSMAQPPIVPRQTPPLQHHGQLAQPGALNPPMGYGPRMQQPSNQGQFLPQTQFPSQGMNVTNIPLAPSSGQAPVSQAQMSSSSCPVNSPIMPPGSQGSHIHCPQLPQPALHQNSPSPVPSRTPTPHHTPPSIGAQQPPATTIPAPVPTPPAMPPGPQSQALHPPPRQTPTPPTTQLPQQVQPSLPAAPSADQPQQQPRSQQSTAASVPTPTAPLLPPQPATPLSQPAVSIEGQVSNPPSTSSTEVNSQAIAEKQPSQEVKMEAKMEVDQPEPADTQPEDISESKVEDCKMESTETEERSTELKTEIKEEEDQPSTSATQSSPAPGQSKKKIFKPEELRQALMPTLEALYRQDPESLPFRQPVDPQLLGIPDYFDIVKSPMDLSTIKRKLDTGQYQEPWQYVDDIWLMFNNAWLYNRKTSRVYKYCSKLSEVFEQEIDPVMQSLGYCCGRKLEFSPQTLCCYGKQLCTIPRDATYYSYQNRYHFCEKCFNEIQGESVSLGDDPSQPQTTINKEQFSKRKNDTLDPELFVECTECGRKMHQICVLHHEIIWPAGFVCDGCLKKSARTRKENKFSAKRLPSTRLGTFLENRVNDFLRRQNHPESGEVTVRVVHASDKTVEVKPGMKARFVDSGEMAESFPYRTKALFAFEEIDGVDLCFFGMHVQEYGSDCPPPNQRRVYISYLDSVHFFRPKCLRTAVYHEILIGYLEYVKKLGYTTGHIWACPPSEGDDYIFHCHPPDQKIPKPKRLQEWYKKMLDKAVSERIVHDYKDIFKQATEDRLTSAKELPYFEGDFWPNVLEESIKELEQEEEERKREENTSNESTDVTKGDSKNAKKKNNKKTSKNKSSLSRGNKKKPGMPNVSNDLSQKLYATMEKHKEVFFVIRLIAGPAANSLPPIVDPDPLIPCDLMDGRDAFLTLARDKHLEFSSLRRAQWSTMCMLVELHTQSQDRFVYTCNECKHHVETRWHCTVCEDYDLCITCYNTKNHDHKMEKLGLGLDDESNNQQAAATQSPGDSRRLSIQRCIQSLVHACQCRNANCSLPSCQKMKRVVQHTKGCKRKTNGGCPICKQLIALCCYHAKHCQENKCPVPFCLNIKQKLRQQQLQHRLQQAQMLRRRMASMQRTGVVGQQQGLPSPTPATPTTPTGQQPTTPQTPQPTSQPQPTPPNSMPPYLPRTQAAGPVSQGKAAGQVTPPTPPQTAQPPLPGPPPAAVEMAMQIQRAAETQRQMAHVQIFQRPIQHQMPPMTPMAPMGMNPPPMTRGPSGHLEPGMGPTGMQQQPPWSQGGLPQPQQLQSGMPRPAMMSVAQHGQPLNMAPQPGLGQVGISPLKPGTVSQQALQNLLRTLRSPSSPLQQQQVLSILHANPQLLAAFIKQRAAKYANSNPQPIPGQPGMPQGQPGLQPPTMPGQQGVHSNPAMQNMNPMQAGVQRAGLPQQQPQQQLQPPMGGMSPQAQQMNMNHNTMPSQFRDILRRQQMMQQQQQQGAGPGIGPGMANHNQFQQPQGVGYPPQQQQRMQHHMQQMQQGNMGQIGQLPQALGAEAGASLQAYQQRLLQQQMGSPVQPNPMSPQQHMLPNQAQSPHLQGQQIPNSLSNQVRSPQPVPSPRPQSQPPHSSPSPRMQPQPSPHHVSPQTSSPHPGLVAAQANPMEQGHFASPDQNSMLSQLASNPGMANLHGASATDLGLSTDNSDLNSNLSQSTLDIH

| Structure (SMILES) | IC50 |
| --- | --- |
| CCOC(=O)CCCCCn1cc(Cn2cc(F)c(N)nc2=O)nn1 | 800 nM |
| Nc1ccn(Cc2cn(CCCCc3ccc(C(=O)O)cc3)nn2)c(=O)n1 | 4570 nM |
| CCOC(=O)CCCCCCn1cc(-c2ccc(Cn3cnc(N)nc3=O)cc2)nn1 | 650 nM |
| CCOC(=O)CCCCCCn1cc(-c2ccc(Cn3cnc4c(N)ncnc43)cc2)nn1 | 9900 nM |
| Nc1ccn(Cc2ccc(-c3cn(CCCCc4ccc(C(=O)O)cc4)nn3)cc2)c(=O)n1 | 1140 nM |
| CCOC(=O)CCCCn1cc(-c2ccc(Cn3cnc(N)nc3=O)cc2)nn1 | 880 nM |
| CCOC(=O)CCCCCn1cc(Cn2cc(C)c(N)nc2=O)nn1 | 1100 nM |
| CCOC(=O)CCCCCCn1cc(-c2ccc(Cn3ccc(=O)[nH]c3=O)cc2)nn1 | 2000 nM |
| CCOC(=O)CCCCn1cc(Cn2cnc(N)nc2=O)nn1 | 7690 nM |
| CCOC(=O)CCCCCCn1cc(-c2ccc(Cn3cc(F)c(N)nc3=O)cc2)nn1 | 2600 nM |
| CCOC(=O)CCCn1cc(-c2ccc(Cn3cnc(N)nc3=O)cc2)nn1 | 4590 nM |
| Nc1ccn(Cc2ccc(-c3cn(CCCCCC(=O)O)nn3)cc2)c(=O)n1 | 4120 nM |
| CCOC(=O)CCCCCCn1cc(-c2ccc(Cn3cc(C)c(N)nc3=O)cc2)nn1 | 770 nM |
| CCOC(=O)CCCCCn1cc(Cn2ccc(N)nc2=O)nn1 | 7800 nM |
| CCOC(=O)CCCCCCn1cc(-c2ccc(Cn3ccc(N)nc3=O)cc2)nn1 | 640 nM |
| Nc1ccn(Cc2ccc(-c3cn(CCCCCCC(=O)O)nn3)cc2)c(=O)n1 | 960 nM |

Stronger by IC50, values ahead:

| IC50 | Structure (SMILES) |
| --- | --- |
| 370 nM | COC(=O)c1ccc(CCCCn2cc(-c3ccc(Cn4cc(F)c(N)nc4=O)cc3)nn2)cc1 |
| 360 nM | CCOC(=O)CCCn1cc(-c2ccc(Cn3ccc(N)nc3=O)cc2)nn1 |
| 360 nM | COC(=O)c1ccc(CCCCn2cc(-c3ccc(Cn4cnc(N)nc4=O)cc3)nn2)cc1 |
| 250 nM | Nc1nc(=O)n(Cc2ccc(-c3cn(CCCCc4ccc(C(=O)O)cc4)nn3)cc2)cc1F |
| 240 nM | Nc1ccn(Cc2ccc(-c3cn(CCCCC(=O)O)nn3)cc2)c(=O)n1 |
| 560 nM | Nc1ccn(Cc2ccc(-c3cn(CCCC(=O)O)nn3)cc2)c(=O)n1 |
| 180 nM | COC(=O)c1ccc(CCCCn2cc(-c3ccc(Cn4ccc(N)nc4=O)cc3)nn2)cc1 |
| 530 nM | CCOC(=O)CCCCCn1cc(-c2ccc(Cn3cnc(N)nc3=O)cc2)nn1 |
| 560 nM | CCOC(=O)CCCCn1cc(-c2ccc(Cn3ccc(N)nc3=O)cc2)nn1 |
| 480 nM | CCOC(=O)CCCCCn1cc(Cn2cnc(N)nc2=O)nn1 |
| 430 nM | CCOC(=O)CCCCCCn1cc(Cn2cnc(N)nc2=O)nn1 |
| 240 nM | COC(=O)c1ccc(CCCCn2cc(-c3ccc(Cn4cc(C)c(N)nc4=O)cc3)nn2)cc1 |
| 600 nM | CCOC(=O)CCCCCn1cc(-c2ccc(Cn3ccc(N)nc3=O)cc2)nn1 |

These molecules were tested on NCI-H520 (assay: Antiproliferative activity against human NCI-H520 cells assessed as inhibition of cell growth incubated for 72 hrs by MTT assay). Details: NCI-H520, 72 h.
Type: functional, cell-based

| IC50 | Structure (SMILES) |
| --- | --- |
| 23200 nM | COC(=O)c1ccc(CCCCn2cc(-c3ccc(Cn4cc(F)c(N)nc4=O)cc3)nn2)cc1 |
| 12200 nM | COC(=O)c1ccc(CCCCn2cc(-c3ccc(Cn4ccc(N)nc4=O)cc3)nn2)cc1 |
